Test results taken from ChEMBL document CHEMBL1201862, “PubChem BioAssay data set” (2004).
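Tested at 5 concentrations; 48 h exposure; 96-well plates; endpoints linearly interpolated, else capped at highest concentration. GI50 is the concentration that inhibits growth by half.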 Active and inactive are the calls of the source. No stated cut-off is given here; in the data, active = GI50 up to about 1.1 µM and inactive = higher.

Experiments:
Assay in all cases: growth of human tumour cells (NCI), 48 h
DU-145 = system: DU-145
RPMI-8226 = system: RPMI-8226
CCRF-CEM = system: CCRF-CEM
A549 = system: A549
U-251 = system: U-251
HCT-15 = system: HCT-15
A498 = system: A498
SK-MEL-28 = system: SK-MEL-28
NCI-H522 = system: NCI-H522
SF-539 = system: SF-539
MOLT-4 = system: MOLT-4
HOP-92 = system: HOP-92
HL-60 = system: HL-60
M14 = system: M14
OVCAR-4 = system: OVCAR-4
KM12 = system: KM12
COLO 205 = system: COLO 205
NCI-H460 = system: NCI-H460
SK-MEL-2 = system: SK-MEL-2
TK-10 = system: TK-10
UO-31 = system: UO-31
SK-OV-3 = system: SK-OV-3
SN12C = system: SN12C
MDA-N = system: MDA-N
MDA-MB-231 = system: MDA-MB-231
MDA-MB-435 = system: MDA-MB-435
RXF 393 = system: RXF 393
SW-620 = system: SW-620
NCI-H23 = system: NCI-H23
SR = system: SR
SF-268 = system: SF-268
T47D = system: T47D
IGROV-1 = system: IGROV-1
UACC-257 = system: UACC-257
LOX IMVI = system: LOX IMVI
CAKI-1 = system: CAKI-1
NCI-H226 = system: NCI-H226
MCF7 = system: MCF7
PC-3 = system: PC-3
SF-295 = system: SF-295
SNB-19 = system: SNB-19
EKVX = system: EKVX
786-0 = system: 786-0
Hs-578T = system: Hs-578T
BT-549 = system: BT-549
HCT-116 = system: HCT-116
K562 = system: K562
HT-29 = system: HT-29
HOP-62 = system: HOP-62
SK-MEL-5 = system: SK-MEL-5
OVCAR-5 = system: OVCAR-5
UACC-62 = system: UACC-62
Malme-3M = system: Malme-3M
ACHN = system: ACHN
HCC 2998 = system: HCC 2998
OVCAR-3 = system: OVCAR-3
SNB-75 = system: SNB-75
OVCAR-8 = system: OVCAR-8
NCI/ADR-RES = system: NCI/ADR-RES

Measured: GI50

CSc1ncnc2c1cnn2CCCCO
> 100 µM: HCT-15
inactive: DU-145 > 100 µM | RPMI-8226 > 100 µM | CCRF-CEM > 100 µM | A549 > 100 µM | U-251 > 100 µM | A498 > 100 µM | SK-MEL-28 > 100 µM | NCI-H522 > 100 µM | SF-539 > 100 µM | MOLT-4 > 100 µM | HOP-92 > 100 µM | HL-60 > 100 µM | M14 > 100 µM | OVCAR-4 > 100 µM | KM12 > 100 µM | COLO 205 > 100 µM | NCI-H460 > 100 µM | SK-MEL-2 > 100 µM | TK-10 > 100 µM | UO-31 > 100 µM | SK-OV-3 > 100 µM | SN12C > 100 µM | MDA-N > 100 µM | MDA-MB-231 > 100 µM | MDA-MB-435 > 100 µM | RXF 393 > 100 µM | SW-620 > 100 µM | NCI-H23 > 100 µM | SR > 100 µM | SF-268 > 100 µM | T47D > 100 µM | IGROV-1 > 100 µM | UACC-257 > 100 µM | LOX IMVI > 100 µM | CAKI-1 > 100 µM | NCI-H226 > 100 µM | MCF7 > 100 µM | PC-3 > 100 µM | SF-295 > 100 µM | SNB-19 > 100 µM | EKVX > 100 µM | 786-0 > 100 µM | Hs-578T > 100 µM | BT-549 > 100 µM | HCT-116 > 100 µM | K562 > 100 µM | HT-29 > 100 µM | HOP-62 > 100 µM | SK-MEL-5 > 100 µM | OVCAR-5 > 100 µM | UACC-62 > 100 µM | Malme-3M > 100 µM | ACHN > 100 µM | HCC 2998 > 100 µM | OVCAR-3 > 100 µM

CCCC(=O)C1=C(O)C(Cc2c(O)c(C)c(O)c(C(=O)CCC)c2O)=C(O)C(C)(C)C1=O
inactive: DU-145 > 50 µM | RPMI-8226 17 µM | A549 25.2 µM | U-251 22.9 µM | A498 46.8 µM | SK-MEL-28 16.2 µM | MOLT-4 11 µM | HOP-92 10.2 µM | M14 > 50 µM | OVCAR-4 43.6 µM | KM12 23.8 µM | COLO 205 19.4 µM | NCI-H460 14.3 µM | SK-MEL-2 22.4 µM | TK-10 30.6 µM | SNB-75 29.4 µM | UO-31 15.6 µM | SK-OV-3 22.6 µM | SN12C > 50 µM | MDA-N > 50 µM | MDA-MB-231 > 50 µM | MDA-MB-435 > 50 µM | OVCAR-8 > 50 µM | RXF 393 17 µM | SW-620 13.9 µM | NCI-H23 15.8 µM | SR 14.7 µM | SF-268 34.8 µM | T47D 49.2 µM | IGROV-1 37 µM | UACC-257 > 50 µM | LOX IMVI 19 µM | CAKI-1 > 50 µM | MCF7 21.9 µM | PC-3 19.1 µM | SF-295 16.9 µM | SNB-19 20.7 µM | EKVX > 50 µM | 786-0 > 50 µM | Hs-578T 40.6 µM | BT-549 > 50 µM | HCT-116 12.6 µM | K562 15.4 µM | HT-29 20.4 µM | HOP-62 31.8 µM | SK-MEL-5 > 50 µM | OVCAR-5 11.9 µM | UACC-62 > 50 µM | ACHN > 50 µM | HCC 2998 10.9 µM | OVCAR-3 > 50 µM
active: CCRF-CEM 0.421 µM
20 µM: HCT-15

CC(C)=CC[C@H]1C[C@]2(CC=C(C)C)C(=O)[C@@](CC=C(C)C)(C(=O)C(C(=O)c3ccccc3)=C2O)C1(C)C [6-EPI-CLUSIANONE]
inactive: RPMI-8226 3.37 µM | A549 4.94 µM | U-251 4.31 µM | A498 9.46 µM | SK-MEL-28 10.2 µM | NCI-H522 5.38 µM | SF-539 11.6 µM | MOLT-4 4.56 µM | HOP-92 4.31 µM | M14 6.65 µM | OVCAR-4 5.15 µM | KM12 3.88 µM | COLO 205 3.94 µM | NCI-H460 3.3 µM | SK-MEL-2 2.67 µM | TK-10 5.15 µM | SNB-75 7.28 µM | UO-31 3.44 µM | SK-OV-3 5.32 µM | SN12C 3.49 µM | MDA-N 5.21 µM | MDA-MB-231 6.01 µM | MDA-MB-435 5.4 µM | OVCAR-8 5.78 µM | RXF 393 6.75 µM | SW-620 6.28 µM | NCI-H23 7.67 µM | SR 8.65 µM | SF-268 10.2 µM | T47D 5.2 µM | IGROV-1 3.82 µM | UACC-257 4.71 µM | LOX IMVI 3.46 µM | CAKI-1 4.44 µM | NCI-H226 14.1 µM | MCF7 4.59 µM | PC-3 4.78 µM | SF-295 4.27 µM | SNB-19 5.21 µM | EKVX 5.05 µM | 786-0 5.51 µM | Hs-578T 14.3 µM | BT-549 8.93 µM | HCT-116 3.63 µM | K562 3.87 µM | HT-29 4.67 µM | HOP-62 6.87 µM | NCI/ADR-RES 5.33 µM | SK-MEL-5 4.53 µM | OVCAR-5 4.98 µM | UACC-62 3.44 µM | Malme-3M 6.49 µM | ACHN 4.88 µM | HCC 2998 3.85 µM
5.04 µM: HCT-15
